In patent US20210162009A1, “CHEMOKINE VARIANTS AS IMMUNE STIMULANTS” (THE MEDICAL COLLEGE OF WISCONSIN, INC., priority 2017, published 2021):

What was measured:
[1] = Translational diffusion measurements (dimerisation state); type: physicochemical
Text: The lines connecting the cysteines show where the intra-and intermolecular disulfide bonds are. A) CXCL12-α2 locked dimer amino acid sequence with the conserved intramolecular disulfide bonds (black lines) and the engineered intermolecular disulfide bonds (red lines) illustrated. B) SDS-PAGE of CXCL12-αand CXCL12-α2 treated with and without dithiothreitol (DTT). […] D) N-terminal peptides corresponding to the first thirty-eight amino acids of CXCR4 are illustrated. The sequence for p38 is identical to that of CXCR4 except for an additional N-terminal Gly-Ser dipeptide (cloning artifact) and the C28A substitution (green) introduced to prevent oxidative peptide dimer formation. The sulfated peptides are identical to p38 except for the inclusion of sulfotyrosine at position 21 for p38-sY1 and at positions 7, 12 and 21 for p38-sY3.

[2] = Toxicity: serum AST, ALT, BUN; type: in vivo; conditions: 5 μM twice weekly for 3 weeks, mice
Experimental: Serum levels of aspartate aminotransferase (AST) and alanine aminotransferase (ALT) were measured using serologic assays to measure hepatic toxicity. Serum levels of blood urea nitrogen (BUN) were monitored to detect kidney damage.
Toxicity—Blood, bone marrow, and tissue levels of CXCL12 were measured using a commercially available sandwich ELISA assay (20-22). The ELISA will detect both endogenous and exogenous CXCL12. Toxicity is monitored using histopathologic assessment of heart, and kidney, and serum assays of hepatic (e.g. AST, ALT, AP) and kidney (e.g. BUN, creatinine) biomarkers, using standard veterinary assays. […] Published data (Roy et al., 2014) indicate twice weekly injection of 5 μM chemokine protein is well tolerated, with no change in body weight or appearance after 120 days in tumor xenografted mice.

CXCR4 [3] = biological target: T1, CXCR4 (Homo sapiens, UniProt P61073); conditions: 125I-CXCL12 displacement; read-out: Kd for binding CXCR4; cited from earlier work
[4] = relative to natural CXCL12; cited from earlier work
[5] = tested on: 5T33 multiple myeloma cells; assay: Mobilization of GFP-tagged 5T33 multiple myeloma cells into the blood; type: in vivo, mice; conditions: 50 μM subcutaneous, 1 hour, GFP+ cells by flow cytometry
Experimental: Representative flow cytometry plots are on the left measuring side scatter counts (SSC) and GFP+-5T33 multiple myeloma cells in the circulation before and after treatment shown in the right panels. n=5 mice per treatment group.
This mobilization is compared to the mobilization following administration of AMD3100. Mice bearing GFP-tagged 5T33 multiple myeloma cells were bled immediately prior to subcutaneous injection of either the CXCL12 locked dimer (50 μM) or AMD3100 (4 mM). Individual mice were re-bled 1-hour later and GFP+ myeloma tumor cells in peripheral circulation quantified by flow cytometry. Representative flow cytometry plots are on the left with GFP+-5T33 multiple myeloma cells in the circulation before and after treatment shown in the right panels. n=5 mice per treatment group.

lymphocytes = assay: Mobilization of lymphocytes into peripheral blood and out of bone marrow; type: in vivo, mice
Experimental: (§1) FIGS. 6A-6C show mobilization of lymphocytes into the peripheral blood (A) and out of the bone marrow (B) 1 hour after subcutaneous injection of 5 μM (0.8 mg/kg) CXCL12 locked dimer 104 or 4000 μM (20 mg/kg) plerixafor/AMD3100 102. Control mice received an injection of the chemokine vehicle (Veh), sterile PBS 100. Values are mean±SEM, n=3-4 mice per group. Asterisks (****)=[…].
The chemokine CXCL12 is produced by bone marrow stromal cells (17). A single dose infusion of plerixafor/AMD3100 competitively antagonizes CXCR4 to disrupt stromal CXCL12 interactions with bone marrow cells, mobilizing HSC to enter into the peripheral blood (6). […] Importantly, the 5 μM the CXCL12 locked dimer dose used is the same concentration we have used to block tumor metastasis in vivo and where plerixafor/AMD3100 is ineffective (FIGS. 5A-5B).
After blood collection, treated and control mice were sacrificed and the bone marrow of each femur flushed with PBS. Peripheral blood and marrow samples were centrifuged (1800×g for 15 min at room temperature), the plasma removed, and the leukocytes in the buffy coat collected, an aliquot used to enumerate the total cell population using hemocytometry, and the remaining cells transferred to flow cytometry tubes. Peripheral and bone marrow immunocytes were incubated with fluorescence-tagged antibodies to detect the HSC markers CD34, CD11, SCA1, CD90, CD38, Lin and CXCR4, or the T cell and B cell markers CD3 and CD19, respectively.
Control mice received an injection of the chemokine vehicle (Veh), sterile PBS 100. Values are mean ±SEM, n=3-4 mice per group. Asterisks (****)=P≤0.001.

CD34+CXCR4+ stem cells = assay: Mobilization of CD34+CXCR4+ hematopoietic stem cells; type: in vivo, mice
Experimental: as §1
FIGS. 8A-8C show mobilization of hematopoietic stem cells by the CXCL12 locked dimer. Mice were bled (baseline) prior to subcutaneous injection of LD at a final concentration of 5 μM. Mice were re-bled 15-minutes (FIG. 8A), 2-hours (FIG. 8B) or 4-hours (FIG. 8C) later. Two separate cohorts of mice (shown by circles and squares) were treated (n=3 per group) and show consistent increases in the number of CD34+ stem cells in the circulation.
After blood collection, treated and control mice were sacrificed and the bone marrow of each femur flushed with PBS. […] Peripheral and bone marrow immunocytes were incubated with fluorescence-tagged antibodies to detect the HSC markers CD34, CD11, SCA1, CD90, CD38, Lin and CXCR4, or the T cell and B cell markers CD3 and CD19, respectively.
FIGS. 8A-8C also show mobilization of hematopoietic stem cells by the CXCL12 locked dimer. […] Levels of CD34+CXCR4+ stem cells within circulating blood were detected and quantified using multiparametric flow cytometry.

Heparin binding = assay: Heparin binding
Text: Further, in addition to binding CXCR4, CXCL12 also binds to heparin found in the extracellular matrix on cell surfaces. […] Amino acid substitutions in CXCL12, including K24S, K27S, or K24S/K27S can prevent heparin binding and increase the half-life of CXCL12 in vivo; therefore, similar mutations in CXCL12-α2 would likely prevent heparin binding and increase the in vivo half-life of the dimer.

CXCR4 [6] = biological target: T1, CXCR4; conditions: 10 nM CXCL12 variants, with or without pertussis toxin; cited from earlier work
melanoma metastasis = conditions: cited from earlier work; for blocking of tumor metastasis: side-by-side equimolar comparison, 5 μM
[7] = fitted, 20 mM sodium phosphate pH 7.4

T1 sequence (P61073 whole entry): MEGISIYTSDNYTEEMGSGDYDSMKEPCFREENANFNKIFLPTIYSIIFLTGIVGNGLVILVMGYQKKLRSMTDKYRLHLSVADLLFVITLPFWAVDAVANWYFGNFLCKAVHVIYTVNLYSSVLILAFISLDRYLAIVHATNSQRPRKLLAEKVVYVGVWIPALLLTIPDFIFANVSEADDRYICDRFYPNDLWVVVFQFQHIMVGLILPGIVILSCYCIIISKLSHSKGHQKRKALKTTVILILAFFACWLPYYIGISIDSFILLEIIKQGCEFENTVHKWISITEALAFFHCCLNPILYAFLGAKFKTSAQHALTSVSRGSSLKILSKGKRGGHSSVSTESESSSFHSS

| Molecule | dimer Ds value [1, 7] | pure monomer Ds value [1, 7] | hepatic or kidney toxicity (AST, ALT, BUN) [2] | Kd (CXCR4 [3]) [nM] | stability against enzymatic digestion in serum [4] | Diffusion coefficient Ds ([1]; 10, 50 and 150 μM protein) | mobilization of multiple myeloma cells into the blood [5] | bone marrow resident lymphocytes (lymphocytes; 5 μM, subcutaneous, 1 hour) | mobilization of hematopoietic cells into peripheral circulation (lymphocytes; 5 μM, subcutaneous, 1 hour) | ability to mobilize lymphocytes, locked dimer vs AMD3100 (lymphocytes; 1 hour after s.c. 5 μM (0.8 mg/kg) locked dimer or 4000 μM (20 mg/kg) plerixafor/AMD3100) | potency relative to plerixafor for mobilizing lymphocytes, mg/kg basis (lymphocytes; vs plerixafor) [X] | potency relative to plerixafor for mobilizing lymphocytes, molar basis (lymphocytes; vs plerixafor, also monocytes and neutrophils) [×] | number of CD34+ stem cells in circulation (CD34+CXCR4+ stem cells; 5 μM s.c., 15 minutes, 2 hours or 4 hours, two cohorts) | mobilization of CXCR4+CD34+ hematopoietic stem cells (FIG. 6C) (CD34+CXCR4+ stem cells; FIG. 6C) | heparin binding (Heparin binding) | G protein dependent intracellular calcium flux (CXCR4 [6]) | inhibition of melanoma metastasis (melanoma metastasis; dose response) | melanoma metastasis, comparison with plerixafor/AMD3100 (melanoma metastasis; equimolar concentrations) | blocking of tumor metastasis (melanoma metastasis) |
| --- | --- | --- | --- | --- | --- | --- | --- | --- | --- | --- | --- | --- | --- | --- | --- | --- | --- | --- | --- |
| wild-type CXCL12: wild type CXCL12 chemokine (SEQ ID NO:3), natural ligand for CXCR4 | ~1.0 ×10^−6 cm^2s^−1 | ~1.6 ×10^−6 cm^2s^−1 | little hepatic or kidney toxicity | 25 | rapidly inactivated in serum | – | – | – | – | – | – | – | – | – | – | – | – | – | – |
| CXCL12 locked dimer: covalently locked dimer comprising two CXCL12 L36C/A65C sequences (SEQ ID NO: 1), linked by intermolecular disulfide bonds | – | – | little hepatic or kidney toxicity | – | enhanced stability against enzymatic digestion in serum | 1.08-1.09 ×10^−6 cm^2s^−1 | mobilizes multiple myeloma cells into the blood | concomitant decrease in bone marrow resident lymphocytes | potently stimulated mobilization of hematopoietic cells into peripheral circulation | no statistical difference | 3 | 1000 | consistent increases in the number of CD34+ stem cells in circulation | mobilization of CXCR4+CD34+ hematopoietic stem cells | also binds heparin | activates the expected and prototypical G protein dependent intracellular calcium flux | dose dependently inhibits melanoma metastasis | more effective than plerixafor/AMD3100 | blocked tumor metastasis |
| c1cc(CN2CCCNCCNCCCNCC2)ccc1CN1CCCNCCNCCCNCC1 [plerixafor/AMD3100, plerixafor, reference compound] | – | – | – | – | – | – | – | – | – | – | – | – | – | – | – | – | – | – | ineffective |
